Source: patent US20250388589A1, “TRICYCLIC HETEROCYCLIC DERIVATIVES, COMPOSITIONS AND USES THEREOF” (Danatlas Pharmaceuticals Co., Ltd., priority 2022, published 2025)

Key:
[1] = biological target: hPARG (C-terminal His6-tag) (Homo sapiens (Human), UniProt Q86W56); assay: PARG Enzymatic Activity Assay (HTRF); format: biochemical; conditions: hPARG 65 pM final, biotinylated-NAD ribosylated PARP1 8 nM final
Procedure: PARG Enzymatic Activity Assay HTRF assay was used to measure the ability of compounds to inhibit the activity of PARG in vitro. C-terminal His6-tag PARG expressed in E. coli was purified and stored at −80° C. in aliquots. Assay measurements were performed with 1×buffer comprising 50 mM Tris pH 7.4, 0.1 mg/mL BSA, 3 mM EDTA, 0.4 mM EGTA, 1 mM DTT, 50 mM KCl and 0.01% Tween 20.
Compounds dissolved in DMSO were plated into a 384-well assay plate (PerkinElmer, Catalog #: 6008280) in duplicate using a dispenser (Labcyte, Echo 665), and tested on a 10-point 4-fold serial dilution. Add 5 L Enzyme mix [hPARG (C-terminal His6-tag, 4.2 μM), 65 pM final] to the test wells. The plates were covered and left to incubate for 60 minutes at RT before the addition of 5 L substrate mix [biotinylated-NAD ribosylated PARP1 (6.1 μM), 8 nM final] to initiate reaction. After incubating 10 minutes at RT, add 2.5 L Streptavidin-Eu cryptate (Cisbio, Catalog #: 610SAKLA) and 2.5 L Mab anti 6HIS-XL665 (Cisbio, Catalog #: 61HISXLA) to the plate, and incubate for 60 minutes at RT. Read on a multimode plate reader (PerkinElmer, Envision 2015) in time-resolved fluorescence (TRF) mode, with excitation at 337 nm and emission at both 620 nm and 665 nm. Average HTRF signal of high control (Wells with 1% DMSO) was calculated and as Vehicle Control (VC). Average HTRF signal of low control (no Enzyme) was calculated and as Positive control (PC).
(§1) IC50 values were determined by fitting the data to the standard 4 parameters with Hill Slope using GraphPad Prism software.

Kuramochi cell line = assay: Cell Viability Assay (Cell Titer-Glo, 7 days); format: cell-based; conditions: 168 h, Kuramochi cells, 7 days incubation, read-out: PARG Cell viability (IC50)
Procedure: Cell viability studies were conducted in Kuramochi cell line. Cells were maintained in RPMI (Hyclone, Catalog #: SH3080901B) supplemented with 10% v/v FBS (AusGeneX, Catalog #: FBS500-S), 1% v/v Penicillin Streptomycin (Gibco, Catalog #: 15140122). Cells were seeded in 96-well plates (PerkinElmer, Catalog #: 6005680) at a density of 400 cells/well. Compounds dissolved in DMSO were plated in duplicate using a multichannel pipette, and tested on a 9-point 3-fold serial dilution. Cells were incubated for 7 days in a 37° C. active humidified incubator at 5% CO2. Cell viability was measured using the Cell Titer-Glo reagent (Promega, Catalog #: G7573) as manufacturer's instructions. Luminescence signal was measured with a multimode plate reader (Perkin Elmer, Envision 2105 or BMG, ClarioStar Plus). Average values of DMSO treated wells in a plate was calculated and as high control (HC). Average values of only medium in a plate was calculated and as low control (LC)
as §1

Chain of hPARG (C-terminal His6-tag) (Q86W56 whole entry): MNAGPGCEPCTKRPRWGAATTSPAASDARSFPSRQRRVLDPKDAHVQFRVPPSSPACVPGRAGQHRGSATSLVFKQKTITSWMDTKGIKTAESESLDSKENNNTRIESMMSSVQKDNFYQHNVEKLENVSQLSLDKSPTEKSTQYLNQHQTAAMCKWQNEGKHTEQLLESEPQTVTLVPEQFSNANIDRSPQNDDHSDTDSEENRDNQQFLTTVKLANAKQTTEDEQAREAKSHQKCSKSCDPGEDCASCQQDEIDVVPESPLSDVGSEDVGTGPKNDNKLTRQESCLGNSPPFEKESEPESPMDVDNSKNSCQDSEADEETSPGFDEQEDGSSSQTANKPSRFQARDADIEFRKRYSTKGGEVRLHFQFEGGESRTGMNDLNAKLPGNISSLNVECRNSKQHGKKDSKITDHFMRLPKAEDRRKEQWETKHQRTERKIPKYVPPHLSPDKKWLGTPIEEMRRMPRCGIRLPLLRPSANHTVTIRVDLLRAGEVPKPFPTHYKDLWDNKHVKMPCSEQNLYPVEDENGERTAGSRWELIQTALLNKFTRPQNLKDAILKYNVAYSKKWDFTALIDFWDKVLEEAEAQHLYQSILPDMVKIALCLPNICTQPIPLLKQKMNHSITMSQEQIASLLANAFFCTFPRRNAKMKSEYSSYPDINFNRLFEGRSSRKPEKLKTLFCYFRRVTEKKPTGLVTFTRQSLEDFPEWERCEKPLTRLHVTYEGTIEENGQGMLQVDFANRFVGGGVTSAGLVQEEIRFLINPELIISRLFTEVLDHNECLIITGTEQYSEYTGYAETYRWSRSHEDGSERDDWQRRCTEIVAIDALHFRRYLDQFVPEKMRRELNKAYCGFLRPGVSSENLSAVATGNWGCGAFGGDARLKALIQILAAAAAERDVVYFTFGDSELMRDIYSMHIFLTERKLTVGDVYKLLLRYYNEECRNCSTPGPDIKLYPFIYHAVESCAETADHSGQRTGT

IC50 [1] [nM] | Compound | IC50 (Kuramochi cell line) [nM]
< 100 | CO[C@@H](C)C(=O)N1CCC(c2ncnc3c2c2ccc(S(=O)(=O)NC4(C)CC4)cc2n3-c2nnc(C(F)F)s2)CC1 [Example 96, (S)-9-(5-(Difluoromethyl)-1,3,4-thiadiazol-2-yl)-4-(1-(2-methoxypropanoyl)piperidin-4-yl)-N-(1-methylcyclopropyl)-9H-pyrimido[4,5-b]indole-7-sulfonamide] | < 100
< 100 | CO[C@@H]1CCN(C(=O)N2CCC(c3ncnc4c3c3ccc(S(=O)(=O)NC5(C#N)CC5)cc3n4-c3nnc(C(F)F)s3)CC2)C1 [Example 135, (R)-N-(1-Cyanocyclo-propyl)-9-(5-(difluoromethyl)-1,3,4-thiadiazol-2-yl)-4-(1-(3-methoxypyrrolidine-1-carbonyl)piperidin-4-yl)-9H-pyrimido [4,5-b]indole-7-sulfonamide] | < 100
< 100 | CC(C)C(=O)N1CC=C(c2ncnc3c2c2cc(F)c(S(=O)(=O)NC4(C)CC4)cc2n3-c2nnc(C(F)F)s2)CC1 [Example 103, 9-(5-(Difluoromethyl)-1,3,4-thiadiazol-2-yl)-6-fluoro-4-(1-isobutyryl-1,2,3,6-tetrahydropyridin-4-yl)-N-(1-methylcyclopropyl)-9H-pyrimido[4,5-b]indole-7-sulfonamide] | < 100
100 to 1000 | N#CC1(NS(=O)(=O)c2ccc3c4c(N5CCN(C(=O)c6ccc(F)cc6)CC5)ncnc4n(-c4nnc(C(F)F)s4)c3c2)CC1 [Example 13, N-(1-Cyanocyclopropyl)-9-(5-(difluoromethyl)-1,3,4-thiadiazol-2-yl)-4-(4-(4-fluorobenzoyl)piperazin-1-yl)-9H-pyrimido[4,5-b]indole-7-sulfonamide] | 100 to 1000
< 100 | COCCN1CCN(c2ncnc3c2c2ccc(S(=O)(=O)NC4(C#N)CC4)cc2n3-c2nnc(C(F)F)s2)C[C@@H]1C [Example 178, (S)-N-(1-cyanocyclopropyl)-9-(5-(difluoromethyl)-1,3,4-thiadiazol-2-yl)-4-(4-(2-methoxyethyl)-3-methylpiperazin-1-yl)-9H-pyrimido[4,5-b]indole-7-sulfonamide] | < 100
– | CC(C)C(=O)N1C[C@H]2CC[C@@H]1CN2c1ncnc2c1c1ccc(S(=O)(=O)NC3(C#N)CC3)cc1n2-c1nnc(C(F)F)s1 [Example 32, N-(1-Cyanocyclopropyl)-9-(5-(difluoromethyl)-1,3,4-thiadiazol-2-yl)-4-((1R,4R)-5-isobutyryl-2,5-diazabicyclo[2.2.2]octan-2-yl)-9H-pyrimido[4,5-b]indole-7-sulfonamide] | 100 to 1000
< 100 | CC1(NS(=O)(=O)c2ccc3c4c(C5CCN(C(=O)N6CC[C@@H](O)C6)CC5)ncnc4n(-c4nnc(C(F)F)s4)c3c2)CC1 [Example 132, (R)-9-(5-(Difluoromethyl)-1,3,4-thiadiazol-2-yl)-4-(1-(3-hydroxypyrrolidine-1-carbonyl)piperidin-4-yl)-N-(1-methylcyclopropyl)-9H-pyrimido[4,5-b]indole-7-sulfonamide] | < 100
< 100 | CC1(NS(=O)(=O)c2ccc3c4c(C5CCN(C(=O)N6CCOCC6)CC5)ncnc4n(-c4nnc(C(F)F)s4)c3c2)CC1 [Example 133, 9-(5-(difluoromethyl)-1,3,4-thiadiazol-2-yl)-N-(1-methylcyclopropyl)-4-(1-(morpholine-4-carbonyl)piperidin-4-yl)-9H-pyrimido[4,5-b]indole-7-sulfonamide] | < 100
< 100 | CC(=O)N1CCC(c2ncnc3c2c2ccc(S(=O)(=O)NC4(C#N)CC4)cc2n3-c2nnc(C(F)F)s2)CC1 [Example 105, 4-(1-acetylpiperidin-4-yl)-N-(1-cyanocyclopropyl)-9-(5-(difluoromethyl)-1,3,4-thiadiazol-2-yl)-9H-pyrimido[4,5-b]indole-7-sulfonamide] | < 100
100 to 1000 | C[C@H]1CN(C(=O)N(C)C)CCN1c1ncnc2c1c1ccc(S(=O)(=O)NC3(C#N)CC3)cc1n2-c1nnc(C(F)F)s1 [Example 72, (S)-4-(7-(N-(1-Cyanocyclopropyl)sulfamoyl)-9-(5-(difluoromethyl)-1,3,4-thiadiazol-2-yl)-9H-pyrimido[4,5-b]indol-4-yl)-N,N,3-trimethylpiperazine-1-carboxamide] | 100 to 1000
< 100 | CN(C)C(=O)N1CCC(c2ccnc3c2c2ccc(S(=O)(=O)NC4(C)CC4)cc2n3-c2nnc(C(F)F)s2)CC1 [Example 195, 4-(9-(5-(Difluoromethyl)-1,3,4-thiadiazol-2-yl)-7-(N-(1-methylcyclopropyl)sulfamoyl)-9H-pyrido[2,3-b]indol-4-yl)-N,N-dimethylpiperidine-1-carboxamide] | 100 to 1000
< 100 | C[C@H](N)C(=O)N1CCC(c2ncnc3c2c2ccc(S(=O)(=O)NC4(C#N)CC4)cc2n3-c2nnc(C(F)F)s2)CC1 [Example 128, 4-(1-(L-alanyl)piperidin-4-yl)-N-(1-cyanocyclopropyl)-9-(5-(difluoromethyl)-1,3,4-thiadiazol-2-yl)-9H-pyrimido[4,5-b]indole-7-sulfonamide] | 100 to 1000
< 100 | CN(C)C(=O)N1CCC(c2ncnc3c2c2ccc(S(=O)(=O)NC4(C)CC4)cc2n3-c2nnc(C(F)F)s2)CC1 [Example 153, 4-(9-(5-(Difluoromethyl)-1,3,4-thiadiazol-2-yl)-7-(N-(1-methylcyclopropyl)sulfamoyl)-9H-pyrimido[4,5-b]indol-4-yl)-N,N-dimethylpiperidine-1-carboxamide] | < 100
< 100 | N#CC1(NS(=O)(=O)c2ccc3c4c(N5CCN(C(=O)C6COC6)CC5)ncnc4n(-c4nnc(C(F)F)s4)c3c2)CC1 [Example 66, N-(1-Cyanocyclopropyl)-9-(5-(difluoromethyl)-1,3,4-thiadiazol-2-yl)-4-(4-(oxetane-3-carbonyl)piperazin-1-yl)-9H-pyrimido[4,5-b]indole-7-sulfonamide] | < 100
< 100 | N#CC1(NS(=O)(=O)c2ccc3c4c(N5CCN(C(=O)C6CC6)CC5)ncnc4n(-c4nnc(C(F)(F)F)s4)c3c2)CC1 [Example 188, N-(1-Cyanocyclopropyl)-4-(4-(cyclopropanecarbonyl)piperazin-1-yl)-9-(5-(trifluoromethyl)-1,3,4-thiadiazol-2-yl)-9H-pyrimido[4,5-b]indole-7-sulfonamide] | 100 to 1000
< 100 | COC1(C(F)(F)F)CCN(c2ncnc3c2c2ccc(S(=O)(=O)NC4(C#N)CC4)cc2n3-c2nnc(C(F)F)s2)CC1 [Example 47, N-(1-Cyanocyclopropyl)-9-(5-(difluoromethyl)-1,3,4-thiadiazol-2-yl)-4-(4-methoxy-4-(trifluoromethyl)piperidin-1-yl)-9H-pyrimido[4,5-b]indole-7-sulfonamide] | 100 to 1000
< 100 | CN(CCO)C(=O)N1CCC(c2ncnc3c2c2ccc(S(=O)(=O)NC4(C#N)CC4)cc2n3-c2nnc(C(F)F)s2)CC1 [Example 143, 4-(7-(N-(1-cyanocyclo-propyl)sulfamoyl)-9-(5-(difluoromethyl)-1,3,4-thiadiazol-2-yl)-9H-pyrimido[4,5-b]indol-4-yl)-N-(2-hydroxyethyl)-N-methylpiperidine-1-carboxamide] | 100 to 1000
< 100 | C[C@@H]1CO[C@@H](C)CN1c1ncnc2c1c1ccc(S(=O)(=O)NC3(C#N)CC3)cc1n2-c1nnc(C(F)F)s1 [Example 200, N-(1-Cyanocyclopropyl)-9-(5-(difluoromethyl)-1,3,4-thiadiazol-2-yl)-4-((2S,5R)-2,5-dimethylmorpholino)-9H-pyrimido[4,5-b]indole-7-sulfonamide] | < 100
– | N#CC1(NS(=O)(=O)c2ccc3c4c(N5CCN(C(=O)c6ccccn6)CC5)ncnc4n(-c4nnc(C(F)F)s4)c3c2)CC1 [Example 14, N-(1-Cyanocyclopropyl)-9-(5-(difluoromethyl)-1,3,4-thiadiazol-2-yl)-4-(4-picolinoylpiperazin-1-yl)-9H-pyrimido[4,5-b]indole-7-sulfonamide] | < 100
